Patent publication US20250236599A1, “LIPID NANOPARTICLES FOR OLIGONUCLEOTIDE DELIVERY” (ZIPHIUS NV, priority 2021, published 2025)

How the values were obtained:
[1] = test system: expression of the luciferase saRNA; assay: In vivo bioluminescent imaging after intramuscular injection of LNP-formulated luciferase saRNA; settings: 1 μg LNP-formulated luciferase saRNA intramuscularly, female SWISS mice
Procedure: (§1) Female SWISS mice (6 weeks old) were purchased from Janvier Laboratories (Paris, France) and kept in individually ventilated cages with access to food and water ad libitum. Mice were anesthetized with isoflurane (Zoetis, Louvain-La-Neuve, Belgium) (5% for induction and 2% for maintenance) and intramuscularly injected with a total of 1 μg in 100 μL Tris-HCL (50 μL per leg) LNP-formulated luciferase saRNA (for each group n=7). The expression of the luciferase induced bioluminescence was measured via non-invasive In vivo bioluminescent imaging (In vivo Imaging System (IVIS) Lumina III, Perkin Elmer, Waltham, Massachusetts, USA), 10 minutes after subcutaneous injection of […] of D-luciferin (GoldBio, Saint Louis, Missouri, USA, #LUCK-1G) were measured in day 0 (before injection), day 1, day 3, day 5, day 7, day 10, day 15 and day 20.

[2] = saRNA loading / encapsulation efficiency, Quant-IT RiboGreen assay; type: physicochemical; settings: LNP lipid:DOPE:Cholesterol:DMG-PEG 35:20:43.5:1.5, firefly luciferase saRNA
Procedure: The saRNA loading in LNP formulations was quantified using a Quant-IT RiboGreen assay (Thermo Fisher Scientific, Waltham, Massachusetts, USA) as previously described. 14 samples were diluted tenfold in 1x Tris HCL-EDTA (TE) buffer (10 mM Tris-HCL, 1 mM EDTA, pH 7.5) with or without 2% (v/v) Triton X-100 (Sigma-Aldrich, Saint Louis, Missouri, USA). Standard solutions were also prepared in 1xTE with or without 2% (v/v) Triton X-100 to account for any variation in fluorescence. The assay was performed according to the manufacturer's protocol. Samples were loaded on a black 96-well plate and analysed for fluorescence on a microplate reader (Tecan Infinite® 200 PRO) at an excitation of 485 nm and emission at 528 nm. Encapsulation efficiency was calculated between 80-100%.

[3] = Weight evolution of the animals following administration of LNPs; type: in vivo; settings: female SWISS mice
Procedure: as §1

[4] = LNP particle size, polydispersity index and charge by Zeta Sizer; type: physicochemical; settings: LNP lipid:DOPE:Cholesterol:DMG-PEG 35:20:43.5:1.5, firefly luciferase saRNA; for Polydispersity Index (PI) / Z-average (nm): N/P approx. 40/1
Procedure: Cationic lipids, DOPE, Cholesterol and DMG-PEG lipid were solubilized in ethanol or DMSO at a molar ratio of 35:20:43.5:1.5 and a concentration of 100:25:20:25 μg/μL for C12-200 or 170:25:20:25 μg/μL for the comparator lipids. Lipid nanoparticles (LNP) were prepared by targeting an N/P ratio of approximately 40/1 with saRNA. Briefly, the firefly luciferase saRNA of approximately 9659 nucleotides was diluted to 0.5 mg/mL in 5 mM citrate buffer, pH 4.5. Microfluidic mixer (Ignite from Precision Nanosystems, California, USA) was used to mix the lipid solution with the saRNA aqueous solution at a ratio of about 1:3 (vol/vol) with total flow rates above 10 ml/min. The ethanol was then removed, and the external buffer replaced with 10 mM TRIS-HCL, PH 7.4, by dialysis. Finally, the lipid nanoparticles were filtered through a 0.2 μm pore sterile filter. Lipid nanoparticle particle size was 50-150 nm diameter and polydispersity index (PI) of 0.1-0.4 as determined by Zeta Sizer (Malvern Panalytical, UK). The charge of the formulation was also measured by Zeta Sizer and ranged between 20 to −20 mV.

[5] = Day 1, 1 μg LNP-formulated saRNA intramuscularly
[6] = Day 3, 1 μg LNP-formulated saRNA intramuscularly
[7] = Day 5, 1 μg LNP-formulated saRNA intramuscularly
[8] = Day 7, 1 μg LNP-formulated saRNA intramuscularly
[9] = Day 10, 1 μg LNP-formulated saRNA intramuscularly
[10] = Day 15, 1 μg LNP-formulated saRNA intramuscularly
[11] = Day 20, 1 μg LNP-formulated saRNA intramuscularly

Structure (SMILES): CCCCCCCCC(CCCCCC)C(=O)OCCN(CCOC(=O)C(CCCCCC)CCCCCCCC)CCN(CCOC(=O)C(CCCCCC)CCCCCCCC)CCN1CCN(CCN(CCOC(=O)C(CCCCCC)CCCCCCCC)CCOC(=O)C(CCCCCC)CCCCCCCC)CC1 (stereo not drawn) [Compound 9-29, ((2-(4-(2-((2-(bis(2-((2-hexyldecanoyl)oxy)ethyl)amino)ethyl) (2-((2-hexyldecanoyl)oxy)ethyl)amino)ethyl)piperazin-1-yl)ethyl)azanediyl)bis(ethane-2,1-diyl) bis(2-hexyldecanoate)]
- Bioluminescence expression of LNPs ([1]; Day 1): 4.13E+05
- Bioluminescence expression of LNPs ([1]; Day 3): 1.68E+07
- Bioluminescence expression of LNPs ([1]; Day 5): 4.25E+07
- Bioluminescence expression of LNPs ([1]; Day 7): 6.13E+07
- Bioluminescence expression of LNPs ([1]; Day 10): 3.92E+07
- Bioluminescence expression of LNPs ([1]; Day 15): 1.44E+06
- Bioluminescence expression of LNPs ([1]; Day 20): 5.43E+05
- Encapsulation (%) [2]: 94.31%
- Weight ([3]; Day 0): 29.59 g
- Weight [3, 5]: 29.53 g
- Weight [3, 6]: 29.74 g
- Weight [3, 7]: 30.04 g
- Weight [3, 8]: 30.93 g
- Weight [3, 9]: 30.63 g
- Weight [3, 10]: 30.89 g
- Weight [3, 11]: 32.69 g
- Zetapotential (mV) [4]: −10.51 mV
- Polydispersity Index (PI) [4]: 0.15
- Z-average (nm) [4]: 102.48 nm

Structure (SMILES): CCCCCCCCC(CCCCCC)C(=O)OCCCCN(CCCCOC(=O)C(CCCCCC)CCCCCCCC)CCN(CCCCOC(=O)C(CCCCCC)CCCCCCCC)CCN1CCN(CCN(CCCCOC(=O)C(CCCCCC)CCCCCCCC)CCCCOC(=O)C(CCCCCC)CCCCCCCC)CC1 (stereo not drawn) [Compound 9-30, ((2-(4-(2-((2-(bis(4-((2-hexyldecanoyl)oxy)butyl)amino)ethyl) (4-((2-hexyldecanoyl)oxy)butyl)amino)ethyl)piperazin-1-yl)ethyl)azanediyl) bis(butane-4,1-diyl)bis(2-hexyldecanoate)]
- Bioluminescence expression of LNPs ([1]; Day 1): 2.31E+06
- Bioluminescence expression of LNPs ([1]; Day 3): 2.87E+07
- Bioluminescence expression of LNPs ([1]; Day 5): 6.18E+07
- Bioluminescence expression of LNPs ([1]; Day 7): 9.09E+07
- Bioluminescence expression of LNPs ([1]; Day 10): 2.84E+07
- Bioluminescence expression of LNPs ([1]; Day 15): 1.67E+05
- Bioluminescence expression of LNPs ([1]; Day 20): 1.67E+05
- Encapsulation (%) [2]: 94.22%
- Weight ([3]; Day 0): 29.39 g
- Weight [3, 5]: 28.23 g
- Weight [3, 6]: 29.73 g
- Weight [3, 7]: 29.77 g
- Weight [3, 8]: 30.46 g
- Weight [3, 9]: 31.20 g
- Weight [3, 10]: 30.96 g
- Weight [3, 11]: 32.00 g
- Zetapotential (mV) [4]: −8.56 mV
- Polydispersity Index (PI) [4]: 0.17
- Z-average (nm) [4]: 115.36 nm

Structure (SMILES): CCCCCCC(CCCC)C(=O)OCCN(CCOC(=O)C(CCCC)CCCCCC)CCN1CCN(CCN(CCOC(=O)C(CCCC)CCCCCC)CCOC(=O)C(CCCC)CCCCCC)CC1 (stereo not drawn) [Compound 9-32, ((piperazine-1,4-diylbis(ethane-2,1-diyl))bis(azanetriyl))tetrakis(ethane-2,1-diyl) tetrakis(2-butyloctanoate)]
- Bioluminescence expression of LNPs ([1]; Day 1): 5.13E+06
- Bioluminescence expression of LNPs ([1]; Day 3): 1.31E+08
- Bioluminescence expression of LNPs ([1]; Day 5): 2.76E+08
- Bioluminescence expression of LNPs ([1]; Day 7): 3.71E+08
- Bioluminescence expression of LNPs ([1]; Day 10): 1.08E+07
- Bioluminescence expression of LNPs ([1]; Day 15): 6.35E+05
- Bioluminescence expression of LNPs ([1]; Day 20): 1.29E+05
- Encapsulation (%) [2]: 93.33%
- Weight ([3]; Day 0): 27.00 g
- Weight [3, 5]: 26.94 g
- Weight [3, 6]: 28.46 g
- Weight [3, 7]: 28.26 g
- Weight [3, 8]: 28.11 g
- Weight [3, 9]: 27.91 g
- Weight [3, 10]: 29.69 g
- Weight [3, 11]: 30.94 g
- Zetapotential (mV) [4]: −16.38 mV
- Polydispersity Index (PI) [4]: 0.17
- Z-average (nm) [4]: 54.53 nm

Structure (SMILES): CCCCCCC(CCCC)C(=O)OCCCCN(CCCCOC(=O)C(CCCC)CCCCCC)CCN1CCN(CCN(CCCCOC(=O)C(CCCC)CCCCCC)CCCCOC(=O)C(CCCC)CCCCCC)CC1 (stereo not drawn) [Compound 9-33, ((piperazine-1,4-diylbis(ethane-2,1-diyl))bis(azanetriyl))tetrakis(butane-4,1-diyl) tetrakis(2-butyloctanoate)]
- Bioluminescence expression of LNPs ([1]; Day 1): 3.79E+07
- Bioluminescence expression of LNPs ([1]; Day 3): 6.90E+08
- Bioluminescence expression of LNPs ([1]; Day 5): 1.45E+09
- Bioluminescence expression of LNPs ([1]; Day 7): 1.02E+09
- Bioluminescence expression of LNPs ([1]; Day 10): 5.76E+06
- Bioluminescence expression of LNPs ([1]; Day 15): 5.96E+05
- Bioluminescence expression of LNPs ([1]; Day 20): 1.21E+05
- Encapsulation (%) [2]: 92.26%
- Weight ([3]; Day 0): 26.83 g
- Weight [3, 5]: 25.36 g
- Weight [3, 6]: 27.37 g
- Weight [3, 7]: 26.96 g
- Weight [3, 8]: 27.29 g
- Weight [3, 9]: 27.20 g
- Weight [3, 10]: 28.79 g
- Weight [3, 11]: 29.60 g
- Zetapotential (mV) [4]: −13.70 mV
- Polydispersity Index (PI) [4]: 0.22
- Z-average (nm) [4]: 86.24 nm

Structure (SMILES): CCCCCCC(CCCC)C(=O)OCCCCCCN(CCCCCCOC(=O)C(CCCC)CCCCCC)CCN1CCN(CCN(CCCCCCOC(=O)C(CCCC)CCCCCC)CCCCCCOC(=O)C(CCCC)CCCCCC)CC1 (stereo not drawn) [Compound 9-34, ((piperazine-1,4-diylbis(ethane-2,1-diyl))bis(azanetriyl))tetrakis(hexane-6,1-diyl) tetrakis(2-butyloctanoate)]
- Bioluminescence expression of LNPs ([1]; Day 1): 4.79E+07
- Bioluminescence expression of LNPs ([1]; Day 3): 7.26E+08
- Bioluminescence expression of LNPs ([1]; Day 5): 7.42E+08
- Bioluminescence expression of LNPs ([1]; Day 7): 9.12E+08
- Bioluminescence expression of LNPs ([1]; Day 10): 4.70E+07
- Bioluminescence expression of LNPs ([1]; Day 15): 1.43E+05
- Bioluminescence expression of LNPs ([1]; Day 20): 3.37E+04
- Encapsulation (%) [2]: 94.93%
- Weight ([3]; Day 0): 27.77 g
- Weight [3, 5]: 26.14 g
- Weight [3, 6]: 28.33 g
- Weight [3, 7]: 28.51 g
- Weight [3, 8]: 28.49 g
- Weight [3, 9]: 28.97 g
- Weight [3, 10]: 30.24 g
- Weight [3, 11]: 31.51 g
- Zetapotential (mV) [4]: −7.92 mV
- Polydispersity Index (PI) [4]: 0.16
- Z-average (nm) [4]: 71.78 nm

Structure (SMILES): CCCCCCCCC(CCCCCC)C(=O)OCCCCN(CCCCOC(=O)C(CCCCCC)CCCCCCCC)CCN1CCN(CCN(CCCCOC(=O)C(CCCCCC)CCCCCCCC)CCCCOC(=O)C(CCCCCC)CCCCCCCC)CC1 (stereo not drawn) [Compound 9-36, ((piperazine-1,4-diylbis(ethane-2,1-diyl))bis(azanetriyl))tetrakis(butane-4,1-diyl) tetrakis(2-hexyldecanoate)]
- Bioluminescence expression of LNPs ([1]; Day 1): 4.28E+06
- Bioluminescence expression of LNPs ([1]; Day 3): 1.92E+08
- Bioluminescence expression of LNPs ([1]; Day 5): 8.44E+08
- Bioluminescence expression of LNPs ([1]; Day 7): 6.10E+08
- Bioluminescence expression of LNPs ([1]; Day 10): 5.56E+06
- Bioluminescence expression of LNPs ([1]; Day 15): 2.57E+05
- Bioluminescence expression of LNPs ([1]; Day 20): 1.16E+05
- Encapsulation (%) [2]: 96.25%
- Weight ([3]; Day 0): 29.09 g
- Weight [3, 5]: 29.49 g
- Weight [3, 6]: 31.49 g
- Weight [3, 7]: 30.09 g
- Weight [3, 8]: 30.36 g
- Weight [3, 9]: 30.56 g
- Weight [3, 10]: 31.33 g
- Weight [3, 11]: 32.30 g
- Zetapotential (mV) [4]: −10.52 mV
- Polydispersity Index (PI) [4]: 0.20
- Z-average (nm) [4]: 105.70 nm
